# Data: US11234420B2, “Method for constructing PD-1 gene modified humanized animal model and use thereof” (priority 2016, dated 2022)
# Several values for one entry are separate records, joined by “and”; a condition that tells them apart may be missing. Equal entries are not always repeated. Entries after “also recorded” stand apart in the source; their conditions may differ.
# Tests used:
# Assay type in all cases: in vivo
# [1] = test system: mouse colon cancer cells MC38-hPDL1; experiment: Combined use of Cisplatin with Keytruda or Tecentriq (Example 11), MC38-hPDL1 tumors in B-hPD-1 mice; details: for Tumor volume Day 8: Day 8, group division, Cisplatin 10 mg/kg intravenous once, Keytruda 0.1 mg/kg i.p. once per 3 days x6, Tecentriq 1 mg/kg i.p. once per 2 days x8; for Tumor volume Day 18 / Tumor volume Day 25: doses as Table 9 (Cisplatin 10, Keytruda 0.1, Tecentriq 1 mg/kg); for Tumor volume Day 25: Day 25, end-point; for Tumor free situation: end-point; for weight change compared among groups: mouse, in vivo
# Procedure: B-hPD-1 homozygous mice (4-6 weeks old) were taken, 5×10^5 mouse colon cancer cells MC38-hPDL1 were subcutaneously inoculated at right side (the same as Example 10). When the tumor volume was about 100 mm^3, the mice were randomly divided into 6 control groups or treatment groups (n=7/group). For the treatment group, one or two of the above 3 drugs were randomly injected, the dosages were 0.1-10 mg/kg, and a blank solvent was injected for the control group. The tumor volume was measured and the mice were weighed twice a week. Moreover, euthanasia was performed when the tumor volume of a single mouse reached 3000 mm^3.
# [2] = test system: modified mouse colon cancer cells MC38-hPDL1; experiment: Tecentriq antibody efficacy at different dosages (Example 10, Experiment 4), MC38-hPDL1 tumors in B-hPD-1 mice; details: for Tumor volume Day 8: once per 2 days x8, Day 8, group division; for Tumor volume Day 33: Day 33, end-point; for Survival situation / Tumor free situation: end-point
# Procedure: (§1) B-hPD-1 homozygous mice (4-6 weeks old) were taken, mouse colon cancer cells MC38 or modified MC38-hPDL1 (i.e., PD-L1 gene humanized MC38 cells) were subcutaneously inoculated. When the tumor volume was about 100 mm^3, the mice were randomly divided into a control group or a treatment group. For the treatment group, one of the above 2 antibodies was randomly selected and administered at different dosages (0.3-25 mg/kg), and the same volume of a blank solvent was injected for the control group. The tumor volume was measured twice a week and the body weight were measured for each mouse. Moreover, euthanasia was performed when the tumor volume of a single mouse reached 3000 mm^3. The specific experiment scheme was as follows:
# Experiment 4 Tecentriq antibody efficacy experiments at different dosages (n=5/group): subcutaneous inoculation of MC38-PDL1 (2×10^5/100 μL PBS), the […] Tecentriq was administered to the treatment group through intraperitoneal injection at 1-10 mg/kg, and the same volume of a blank solvent was injected for the control group; the administration frequency was one administration per 2 days for a total of 8 administrations;
# [3] = test system: modified mouse colon cancer cells MC38-hPDL1; experiment: Tecentriq antibody efficacy pre-experiment (Example 10, Experiment 3), MC38-hPDL1 tumors in B-hPD-1 mice
# Procedure: as §1
# Experiment 3 Tecentriq antibody efficacy pre-experiment (n=7/group): subcutaneous inoculation of MC38-PDL1 (5×10^5/100 μL PBS), the […] Tecentriq was administered to the treatment group at 3 mg/kg through intraperitoneal injection, and the same volume of a blank solvent was injected for the control group; the administration frequency was one administration per week for a total of 2 weeks;
# [4] = test system: mouse colon cancer cells MC38-hPDL1; experiment: Screening anti-human PD-L1 antibodies (Example 12, Experiment 1), MC38-hPDL1 tumors in B-hPD-1 mice
# Procedure: Experiment 1: B-hPD-1 homozygous mice (4-6 weeks old) were taken, 5×10^5 mouse colon cancer cells MC38-hPDL1 were subcutaneously inoculated at right side (the same as Example 10). When the tumor volume was about 100 mm^3, the mice were randomly divided into the control group or treatment groups (n=5/group). For the treatment group, the positive control Tecentriq or one of two anti-human PD-L1 antibodies was randomly selected, all dosages were 3 mg/kg, and a blank solvent was injected for the control group. The administration manner was intraperitoneal injection, once per 2 days for a total of 8 times. The tumor volume was measured twice a week. Moreover, euthanasia was performed when the tumor volume of a single mouse reached 3000 mm^3.
# [5] = test system: mouse colon cancer cells MC38; experiment: Keytruda antibody efficacy pre-experiment (Example 10, Experiment 1), MC38 tumors in B-hPD-1 mice
# Procedure: as §1
# Experiment 1 Keytruda antibody efficacy pre-experiment (n=6/group): after subcutaneous inoculation of MC38 cells to mice (5×10^5/100 μL PBS), the anti-human PD-1 antibody Keytruda was administered to the treatment group at 25 mg/kg through intraperitoneal injection, and the same volume of a blank solvent was injected for the control group; the administration frequency was one administration per 3 days for a total of 6 administrations;
# [6] = test system: mouse colon cancer cells MC38; experiment: Keytruda antibody efficacy at different dosages (Example 10, Experiment 2), MC38 tumors in B-hPD-1 mice; details: for Tumor volume Day 8: once per 3 days x6, Day 8, group division; for Tumor volume Day 32: Day 32, end-point; for Survival situation / Tumor free situation: end-point
# Procedure: as §1
# Experiment 2 Keytruda antibody efficacy experiments at different dosages: after subcutaneous inoculation of MC38 cells to mice (5×10^5/100 μL PBS), the anti-human PD-1 antibody Keytruda was administered to the treatment group (n=6/group) through intraperitoneal injection at different dosages (0.3-10 mg/kg), and the same volume of a blank solvent was injected for the control group (n=10/group); the administration frequency was one administration per 3 days for a total of 6 administrations;
compound,measurement,setting,value
Tecentriq: fully humanized monoclonal antibody from Genentech under Roche; human PD-L1 antibody,Tumor volume Day 8,[1],98 ± 26 mm^3
same,Tumor volume Day 18,[1],688 ± 409 mm^3
same,Tumor volume Day 25,[1],1234±977 mm^3
same,TGITV %,[1]; doses as Table 9,29.8%
same,Tumor free situation,[1]; doses as Table 9,0/7
same,weight change compared among groups,[1],no significant difference in average weight increase
same,TGITV %,[2]; 1 mg/kg,61.2%
same,Tumor volume Day 8,[2]; 1 mg/kg i.p.,144 ± 31 mm^3
same,Tumor volume Day 22,[2]; 1 mg/kg,506 ± 289 mm^3
same,Tumor volume Day 33,[2]; 1 mg/kg,1044±432 mm^3
same,Survival situation,[2]; 1 mg/kg,5/5
same,Tumor free situation,[2]; 1 mg/kg,0/5
same,TGITV %,[2]; 3 mg/kg,93.7%
same,Tumor volume Day 8,[2]; 3 mg/kg i.p.,147 ± 38 mm^3
same,Tumor volume Day 22,[2]; 3 mg/kg,418 ± 268 mm^3
same,Tumor volume Day 33,[2]; 3 mg/kg,1028±963 mm^3
same,Survival situation,[2]; 3 mg/kg,5/5
same,Tumor free situation,[2]; 3 mg/kg,0/5
same,TGITV %,[2]; 10 mg/kg,97.2%
same,Tumor volume Day 8,[2]; 10 mg/kg i.p.,153 ± 62 mm^3
same,Tumor volume Day 22,[2]; 10 mg/kg,68 ± 75 mm^3
same,Tumor volume Day 33,[2]; 10 mg/kg,219±326 mm^3
same,Survival situation,[2]; 10 mg/kg,5/5
same,Tumor free situation,[2]; 10 mg/kg,3/5
same,average tumor volume compared with control group,"[2]; 1-10 mg/kg, in words",tumor volume obviously smaller than that of the control group; also recorded: obviously smaller than that of the G1 control group
same,TGITV %,[3]; 3 mg/kg,79.7%
same,Tumor volume Day 6,"[3]; 3 mg/kg intraperitoneal, once per week, 2 weeks, Day 6, group division",88 ± 8 mm3
same,Tumor volume Day 17,"[3]; 3 mg/kg, Day 17",208 ± 72 mm3
same,Tumor volume Day 20,"[3]; 3 mg/kg, Day 20, end-point",237±89 mm3
same,Survival situation,"[3]; 3 mg/kg, end-point",7/7
same,Tumor free situation,"[3]; 3 mg/kg, end-point",no mouse cured in the treatment group and 0/7
same,average tumor volume compared with control group,"[3]; 3 mg/kg, in words",tumor volume obviously smaller than that of the control group
same,toxicity on the animals,"[3]; 3 mg/kg, in words",does not have obvious toxicity on the animals
same,TGITV %,[4]; 3 mg/kg,112.2%
same,Tumor volume Day 10,"[4]; 3 mg/kg i.p., once per 2 days x8, Day 10, group division",111 ± 25 mm^3
same,tumor volume / therapeutic effect compared with control and Tecentriq,"[4]; 3 mg/kg, same dosage and frequency, in words",significant difference in the volume of tumors between G2 or G3 and the control group (G1)
same,Tumor volume Day 20,"[4]; 3 mg/kg, Day 20",60 ± 70 mm^3
same,Tumor volume Day 27,"[4]; 3 mg/kg, Day 27, end-point",75±113 mm^3
same,Survival situation,"[4]; 3 mg/kg, end-point",5/5
same,Tumor free situation,"[4]; 3 mg/kg, end-point",0/5
same,animal weight / tolerance compared with control group,"[4]; 3 mg/kg, in words",no significant difference in average weight increase
N.N.[Cl][Pt][Cl] [Cisplatin],Tumor volume Day 8,[1],98 ± 24 mm^3
same,Tumor volume Day 18,[1],401 ± 249 mm^3
same,Tumor volume Day 25,[1],612±510 mm^3
same,TGITV %,[1]; doses as Table 9,68.2%
same,tumor volume compared with control or single-drug groups,"[1]; doses as Table 9, in words",has certain tumor inhibitory effect
same,Tumor free situation,[1]; doses as Table 9,0/5
same,weight change compared among groups,[1],no significant difference in average weight increase
same,mice died,"[1]; n=7/group, by experiment end-point",2
Keytruda: humanized monoclonal antibody from Merck & Co.; human PD-1 antibody,Tumor volume Day 8,[1],98 ± 30 mm^3
same,Tumor volume Day 18,[1],606 ± 247 mm^3
same,Tumor volume Day 25,[1],1267±619 mm^3
same,TGITV %,[1]; doses as Table 9,27.7%
same,Tumor free situation,[1]; doses as Table 9,0/7
same,weight change compared among groups,[1],no significant difference in average weight increase
same,Tumor volume Day 6,"[5]; 25 mg/kg intraperitoneal, once per 3 days, 6 administrations, Day 6, group division",169 ± 24 mm3
same,Tumor volume Day 18,"[5]; 25 mg/kg intraperitoneal, once per 3 days, 6 administrations, Day 18",302 ± 86 mm3
same,Tumor volume Day 26,"[5]; 25 mg/kg intraperitoneal, once per 3 days, 6 administrations, Day 26, end-point",111±77 mm3
same,TGITV %,"[5]; 25 mg/kg, Tumor Growth Inhibition Value",102%
same,Survival situation,"[5]; 25 mg/kg, end-point Day 26",100%
same,Tumor free situation,"[5]; 25 mg/kg, end-point Day 26, tumor-free mice/mice",2 of the 6 and 2/6
same,average tumor volume compared with control group,"[5]; 25 mg/kg, in words",tumor volume obviously smaller than that of the control group; also recorded: obviously smaller than that of the G1 control group
same,toxicity on the animals,"[5]; 25 mg/kg, in words",does not have obvious toxicity on the animals
same,TGITV %,[6]; 0.3 mg/kg,78.2%
same,Tumor volume Day 8,[6]; 0.3 mg/kg i.p.,113 ± 28 mm^3
same,Tumor volume Day 22,[6]; 0.3 mg/kg,115 ± 116 mm^3
same,Tumor volume Day 32,[6]; 0.3 mg/kg,437±515 mm^3
same,Survival situation,[6]; 0.3 mg/kg,6/6
same,Tumor free situation,[6]; 0.3 mg/kg,1/6
same,TGITV %,[6]; 1 mg/kg,94.0%
same,Tumor volume Day 8,[6]; 1 mg/kg i.p.,112 ± 27 mm^3
same,Tumor volume Day 22,[6]; 1 mg/kg,89 ± 86 mm^3
same,Tumor volume Day 32,[6]; 1 mg/kg,201±186 mm^3
same,Survival situation,[6]; 1 mg/kg,6/6
same,Tumor free situation,[6]; 1 mg/kg,2/6
same,TGITV %,[6]; 3 mg/kg,89.0%
same,Tumor volume Day 8,[6]; 3 mg/kg i.p.,113 ± 25 mm^3
same,Tumor volume Day 22,[6]; 3 mg/kg,88 ± 94 mm^3
same,Tumor volume Day 32,[6]; 3 mg/kg,277±397 mm^3
same,Survival situation,[6]; 3 mg/kg,6/6
same,Tumor free situation,[6]; 3 mg/kg,2/6
same,TGITV %,[6]; 10 mg/kg,92.4%
same,Tumor volume Day 8,[6]; 10 mg/kg i.p.,110 ± 28 mm^3
same,Tumor volume Day 22,[6]; 10 mg/kg,117 ± 111 mm^3
same,Tumor volume Day 32,[6]; 10 mg/kg,223±270 mm^3
same,Survival situation,[6]; 10 mg/kg,6/6
same,Tumor free situation,[6]; 10 mg/kg,2/6
same,average tumor volume compared with control group,"[6]; 0.3, 1, 3 and 10 mg/kg, in words",tumor volume obviously smaller than that of the control group; also recorded: obviously smaller than that of the G1 control group
